The subject of test [1] is MDA-MB-231 cells isolated from tumor-bearing mice. Briefly: Chemosensitization of cultured MDA-MB-231 cells isolated from xenografts. Format: cell-based, human. The conditions noted are these: 72 h-cultured, PL 0.1 μM, Chemo 0.25 μM PAC.PBP, Pter = in vivo pretreatment. On the procedure: FIGS. 18-25. Effect of piperlongumine and I-BET762, as GSH depleting and chemosensitizing agents, in in vitro growing human melanoma, pancreatic, breast, lung, liver, prostate, ovarian, and colorectal cancer cells. Cancer cells, isolated from Pter-treated tumor-bearing mice, were cultured as indicated under Methods. Chemotherapy (0.25 μM PAC.PBP in A2058 melanoma and MDA-MB-231 breast carcinoma cells; 0.125 μM PAC.PBP and 25 μM GTB in AsPC-1 pancreatic cancer cells; 1 μM VRB and 15 μM cisPt in A459 lung carcinoma cells; 0.15 μM DXR in HepG2 hepatocellular carcinoma cells; 15 nM DCT in PC-3 prostate carcinoma cells; 0.15 μM PAC.PBP and 25 μM CarboPt in SK-OV-3 ovarian carcinoma cells; 3 μM 5-FU, 1 μM FA and 0.6 μM IRI in HT-29 colorectal carcinoma cells) was added to the cultured flasks 24 h after seeding. […]
Human A2058, MeWo and MelJuso melanoma cells, and mouse AtT-20 pituitary corticotroph tumor cells were from the American Type Culture Collection (ATCC). […] Cell numbers were determined using a Coulter Counter (Coulter Electronic Inc., Miami, Fla.). […] Cellular viability was assessed as previously reported (Mena, S. et al. Clin Cancer Res 13, 2658-2666 (2007)), by measuring trypan blue exclusion and leakage of lactate dehydrogenase activity. […]
Background: A xenograft is tissue or cells of one species grown in another, often human tumour cells in immunodeficient mice.

For another test, the system named is ASPC-1 cells. Nature of the test: Effect of Pter on ASPC-1 cell growth or viability in vitro. Format: cell-based, human. The note with it: 15 μM Pter×60 min every 24 h. On the procedure: FIG. 11. In vivo effect of Pter on human pancreatic cancer growth. […] For the doses of 20 and 40 mg Pter/kg only the point at the end of the treatment period is shown.
Human A2058, MeWo and MelJuso melanoma cells, and mouse AtT-20 pituitary corticotroph tumor cells were from the American Type Culture Collection (ATCC). Human HEMa-LP epidermal melanocytes were from Life Technologies (Grand Island, N.Y.). Human MDA-MB-231 (triple negative: ER−, PR−, HER2−) and MCF-7 (ER+, PR+, HER2−) breast adenocarcinoma, A549 lung adenocarcinoma (NSCLC), HepG2 hepatocellular carcinoma, LNCaP (AR+) and PC-3 (AR−) prostate adenocarcinoma, SK-OV-3 epithelial ovarian carcinoma, and HT-29 and Caco-2 colorectal carcinoma cells were from the American Type Culture Collection. Cells were grown in Dulbecco's modified Eagle's medium (DMEM) (Invitrogen, San Diego, Calif.), pH 7.4, supplemented with 10% heat-inactivated FCS (Biochrom KG, Berlin, Germany), 100 units/ml penicillin and 100 μg/ml streptomycin. Cells were plated, at a density of 20,000 cells/cm2, and cultured at 37° C. in a humidified atmosphere with 5% CO2. […] Cell numbers were determined using a Coulter Counter (Coulter Electronic Inc., Miami, Fla.). […] Cellular viability was assessed as previously reported (Mena, S. et al. Clin Cancer Res 13, 2658-2666 (2007)), by measuring trypan blue exclusion and leakage of lactate dehydrogenase activity.

This is an account of results in patent US11179348B2, “Combination comprising pterostilbene for the treatment of cancer” (FUNDACIÓN UNIVERSIDAD CATÓLICA DE VALENCIA SAN VICENTE …, priority 2015, dated 2021).

With `COc1cc(/C=C/c2ccc(O)cc2)cc(OC)c1` [Pter, trans-3,5-dimethoxy-4′-hydroxystilbene], the Viable cells in test [1] is recorded as 966 ± 177 ×10^6. The “cell growth or viability in vitro” value in the test on ASPC-1 cells is given as “did not affect”.
